Laboratory results reported in US12570614B2, “Phenyl amino pyrimidine compounds and uses thereof” (GlaxoSmithKline LLC, priority 2007, dated 2026).
“Also recorded” adds a separate entry of the source.

How the values were obtained:
[1] = test system: STAT5 phosphorylation in HEL 92.1.7 cells; test: Intracellular flow cytometric (FACS) analysis of STAT5 phosphorylation in HEL cells; type: cell-based, human; details: HEL 92.1.7 cells, 0.25, 0.5, 1, or 2 μM, 2 hours
Protocol: After treatment the cells were stained with mouse monoclonal anti-STAT5 (Y694) PE antibody and analyzed using fluorescence activated cell sorting (FACS). The histograms are shaded according to the fold change in median fluorescence relative to the isotype control (Isocont lane in clear outline).
The human erythroleukemic cell line, HEL 92.1.7 (ATCC, TIB-180), was grown in RPMI 1640 containing 10% PCS supplemented with 1 mM sodium pyruvate. For phosphor-STAT 5 determination, HEL cells were grown in RPMI 1640+1% PCS for 18 hours at 37° C. and 2×10^5 cells per assay point were exposed to DMSO/test compounds for 2 hours at 37° C. The cells were centrifuged at 1300 rpm for 3 minutes and fixed in paraformaldehyde (2% final concentration) for 15 minutes at 37° C. After centrifugation, cells were permeabilized in 90% methanol at 4° C. for 30 minutes. […]
Staining proceeded for 1 hour at room temperature in the dark, followed by 3 washes in PBS-2% FCS. […] The median fluorescence intensity (MFI) was used to determine fold change upon treatment of cells with specific inhibitor compounds, calculated as the MFIstimulated/MFIunstimulated ratio for the phosphospecific antibody fluorescence channel (FL2).

BaF3 wild-type cells = test: Cellular screening, BaF3 wild-type cells (Alamar Blue); type: cell-based; details: Mus musculus, 48-72 hr incubation, read-out: BAF3wt_IC50_μM
In short: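 Parental BaF3 cells in DMEM with 10% FCS and 10% WEHI 3B conditioned medium were seeded at 50,000–200,000 cells/mL (1.1× final). Compounds were added as 10× solutions, with dilution plates prepared at 20 μM.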

CTLL2 = test: Cellular screening, CTLL2 cells (Alamar Blue); type: cell-based; details: Mus musculus, CTLL-2; 48-72 hr incubation; read-out: CTLL2_IC50_μM
[2] = test system: growth hormone-stimulated insulin-like growth factor-1 (IGF-1); test: Growth hormone-stimulated IGF-1 concentrations in mouse plasma; type: in vivo; details: female C3/H mice, 50 mg/kg oral gavage 8 h and 30 min prior to GH, 6 h post-GH
Protocol: Blood samples were collected 6 h post-GH administration, and plasma IGF-1 concentrations measured using an ELISA for mouse IGF-1 (R & D Systems). Different superscripts denote significant differences (p<0.05) between groups detected by one-way ANOVA and Bonferroni's test post-hoc.

[3] = test system: STAT5 phosphorylation in HEL 92.1.7 cells; test: Western blot of STAT5 phosphorylation in HEL cells; type: cell-based, human; details: 2 hours
Protocol: The Western blots were treated with a STAT5 phosphospecific antibody and exposed to film for 5 minutes (top blot) and 1 minute (middle blot).
The human erythroleukemic cell line HEL 92.1.7 was routinely maintained in RPMI 1640 media containing 10% FCS. The day before the experiment, cells were washed twice in PBS, resuspended in RPMI 1640 media containing 1% FCS, and cultured overnight.
Cells were then placed on ice and washed twice in ice-cold PBS. Washed cell pellets were snap-frozen in liquid nitrogen and stored at −80° C.
(§1) Cell pellets were lysed on ice in RIPA buffer, and lysates clarified by centrifugation (20,000×g, 4° C., 5 min). The protein concentration of lysates was determined by the Bradford method, and equal amounts of protein (60 μg/lane) were separated by SDS-PAGE. Protein was then transferred to PVDF, and Western blotting performed using an antibody that specifically recognizes STAT5 phosphorylated at tyrosine 694. The membrane was then stripped and reprobed with an antibody that recognizes total STAT5 protein.

[4] = test system: IL-3 induced STAT5 phosphorylation in BaF3 cells; test: Western blot of IL-3 induced STAT5 phosphorylation in BaF3 cells; type: cell-based, murine; details: 2 hours compound, mouse IL-3 5 ng/ml 15 minutes
Protocol: The Western blots were treated with a STAT5 phospho-specific antibody and exposed to film for 5 minutes (top blot) and 1 minute (middle blot).
The murine pro-B cell line BaF3 was routinely maintained in RPMI 1640 media containing 10% FCS. On the day of the experiment, cells were washed twice in PBS, and resuspended in RPMI 1640 media containing 0.1% FCS. […] Mouse IL-3 was then added to cells at a final concentration of 5 ng/ml for 15 minutes. Cells were then placed on ice and washed twice in ice-cold PBS. Washed cell pellets were snap-frozen in liquid nitrogen and stored at −80° C.
as §1

[5] = test system: BaF3 TELJAK cells (BafT_J2); test: Cellular screening, BaF3 TELJAK2 cells (Alamar Blue); type: cell-based; details: Mus musculus, BaF3; 48-72 hr incubation; read-out: BafT_J2_IC50_μM

Compound: N#CCNC(=O)c1ccc(-c2ccnc(Nc3ccc(N4CCOCC4)cc3)n2)cc1 [Compound 3, N-(cyanomethyl)-4-(2-(4-morpholinophenyl-amino)pyrimidin-4-yl)benzamide]
- effect on STAT5 phosphorylation (FACS) [1]: dose-dependent effect
- IC50 (BaF3 wild-type cells): < 5 µM
- IC50 (CTLL2): < 5 µM
- plasma IGF-1 concentration [2]: marked decrease
- effect on STAT5 phosphorylation (Western blot) [3]: decrease in STAT5 phosphorylation
- effect on IL-3 induced STAT5 phosphorylation (Western blot) [4]: dose-dependent effect; also recorded: decrease in STAT5 phosphorylation
- IC50 [5]: < 1 µM
